Measured values taken from ChEMBL document CHEMBL4270599, “Synthesis of a 3'-C-ethynyl-β-d-ribofuranose purine nucleoside library: Discovery of C7-deazapurine analogs as potent antiproliferative nucleosides” (Eur J Med Chem, 2018).

Assays:
Type in all cases: functional
COLO 205 [1] = test: Growth inhibition of human COLO205 cells assessed as cell growth at 10^-7 M incubated for 48 hrs by sulforhodamine B assay relative to control; details: COLO 205, 48 h, read-out: Activity
COLO 205 [2] = test: Growth inhibition of human COLO205 cells assessed as cell growth at 10^-5 M incubated for 48 hrs by sulforhodamine B assay relative to control; details: COLO 205, 48 h, read-out: Activity
SF-539 = test: Growth inhibition of human SF539 cells assessed as cell growth at 10^-7 M incubated for 48 hrs by sulforhodamine B assay relative to control; details: SF-539, 48 h, read-out: Activity
NCI-H522 = test: Growth inhibition of human NCI-H522 cells assessed as cell growth at 10^-8 M incubated for 48 hrs by sulforhodamine B assay relative to control; details: NCI-H522, 48 h, read-out: Activity
HT-29 [3] = test: Cytotoxicity against human HT-29 cells after 48 hrs by SRB assay; details: HT-29, 48 h; for CC50: read-out: LC50 (the source's name)
SR = test: Growth inhibition of human SR cells assessed as cell growth at 10^-7 M incubated for 48 hrs by sulforhodamine B assay relative to control; details: read-out: Activity
NCI/ADR-RES [4] = test: Growth inhibition of human NCI/ADR-RES cells assessed as cell growth at 10^-4 M incubated for 48 hrs by sulforhodamine B assay relative to control; details: read-out: Activity
HCC 2998 = test: Growth inhibition of human HCC2998 cells assessed as cell growth at 10^-6 M incubated for 48 hrs by sulforhodamine B assay relative to control; details: HCC 2998, 48 h, read-out: Activity
SW-620 [5] = test: Growth inhibition of human SW620 cells assessed as cell growth at 10^-5 M incubated for 48 hrs by sulforhodamine B assay relative to control; details: SW-620, 48 h, read-out: Activity
SK-OV-3 = test: Growth inhibition of human SKOV3 cells assessed as cell growth at 10^-4 M incubated for 48 hrs by sulforhodamine B assay relative to control; details: SK-OV-3, 48 h, read-out: Activity
A498 = test: Growth inhibition of human A498 cells assessed as cell growth at 10^-8 M incubated for 48 hrs by sulforhodamine B assay relative to control; details: A498, 48 h, read-out: Activity
PC-3 [6] = test: Growth inhibition of human PC3 cells assessed as cell growth at 10^-5 M incubated for 48 hrs by sulforhodamine B assay relative to control; details: PC-3, 48 h, read-out: Activity
UACC-62 = test: Growth inhibition of human UACC62 cells assessed as cell growth at 10^-5 M incubated for 48 hrs by sulforhodamine B assay relative to control; details: UACC-62, 48 h, read-out: Activity
SN12C = test: Growth inhibition of human SN12C cells assessed as cell growth at 10^-6 M incubated for 48 hrs by sulforhodamine B assay relative to control; details: read-out: Activity
MDA-MB-435 [7] = test: Growth inhibition of human MDA-MB-435 cells assessed as cell growth at 10^-5 M incubated for 48 hrs by sulforhodamine B assay relative to control; details: MDA-MB-435, 48 h, read-out: Activity
NCI/ADR-RES [8] = test: Growth inhibition of human NCI/ADR-RES cells assessed as cell growth at 10^-6 M incubated for 48 hrs by sulforhodamine B assay relative to control; details: read-out: Activity
PC-3 [9] = test: Cytotoxicity against human PC3 cells after 48 hrs by SRB assay; details: PC-3, 48 h
UACC-257 = test: Growth inhibition of human UACC257 cells assessed as cell growth at 10^-6 M incubated for 48 hrs by sulforhodamine B assay relative to control; details: UACC-257, 48 h, read-out: Activity
MDA-MB-435 [10] = test: Cytotoxicity against human MDA-MB-435 cells after 48 hrs by SRB assay; details: MDA-MB-435, 48 h
HT-29 [11] = test: Growth inhibition of human HT-29 cells assessed as cell growth at 10^-7 M incubated for 48 hrs by sulforhodamine B assay relative to control; details: HT-29, 48 h, read-out: Activity
CCRF-CEM = test: Growth inhibition of human CCRF-CEM cells assessed as cell growth at 10^-7 M incubated for 48 hrs by sulforhodamine B assay relative to control; details: read-out: Activity
MCF7 = test: Cytotoxicity against human MCF7 cells after 48 hrs by SRB assay; details: MCF7, 48 h
RPMI-8226 = test: Growth inhibition of human RPMI8226 cells assessed as cell growth at 10^-7 M incubated for 48 hrs by sulforhodamine B assay relative to control; details: RPMI-8226, 48 h, read-out: Activity
M14 = test: Growth inhibition of human M14 cells assessed as cell growth at 10^-7 M incubated for 48 hrs by sulforhodamine B assay relative to control; details: M14, 48 h, read-out: Activity
HCT-15 = test: Growth inhibition of human HCT15 cells assessed as cell growth at 10^-4 M incubated for 48 hrs by sulforhodamine B assay relative to control; details: HCT-15, 48 h, read-out: Activity
SW-620 [12] = test: Growth inhibition of human SW620 cells assessed as cell growth at 10^-7 M incubated for 48 hrs by sulforhodamine B assay relative to control; details: SW-620, 48 h, read-out: Activity
SF-268 = test: Growth inhibition of human SF268 cells assessed as cell growth at 10^-6 M incubated for 48 hrs by sulforhodamine B assay relative to control; details: SF-268, 48 h, read-out: Activity
LOX IMVI = test: Cytotoxicity against human LOXIMVI cells after 48 hrs by SRB assay
OVCAR-3 = test: Growth inhibition of human OVCAR3 cells assessed as cell growth at 10^-4 M incubated for 48 hrs by sulforhodamine B assay relative to control; details: OVCAR-3, 48 h, read-out: Activity
RXF 393 = test: Growth inhibition of human RXF393 cells assessed as cell growth at 10^-6 M incubated for 48 hrs by sulforhodamine B assay relative to control; details: RXF 393, 48 h, read-out: Activity
OVCAR-5 = test: Growth inhibition of human OVCAR5 cells assessed as cell growth at 10^-8 M incubated for 48 hrs by sulforhodamine B assay relative to control; details: OVCAR-5, 48 h, read-out: Activity
OVCAR-4 = test: Growth inhibition of human OVCAR4 cells assessed as cell growth at 10^-7 M incubated for 48 hrs by sulforhodamine B assay relative to control; details: OVCAR-4, 48 h, read-out: Activity
[13] = read-out: pLC50 (the source's name) (converted)
[14] = read-out: LC50 (the source's name)

C#C[C@@]1(O)[C@@H](CO)O[C@@H](n2ccc3c(N)ncnc32)[C@@H]1O
growth at 0.1 µM (COLO 205 [1]): 97% | growth at 10 µM (COLO 205 [2]): -54% | growth at 0.1 µM (SF-539): 103% | growth at 0.01 µM (NCI-H522): 90% | CC50 (HT-29 [3]): > 100 µM | TGI (HT-29 [3]; read-out: TGI): 10 µM | GI50 (HT-29 [3]; read-out: pGI50 (converted)): 0.977 µM | TGI (HT-29 [3]; read-out: pTGI (converted)): 10 µM | growth at 0.1 µM (SR): 96% | growth at 100 µM (NCI/ADR-RES [4]): -9% | growth at 1 µM (HCC 2998): 74% | growth at 10 µM (SW-620 [5]): 5% | growth at 100 µM (SK-OV-3): -11% | growth at 0.01 µM (A498): 85% | growth at 10 µM (PC-3 [6]): -37% | growth at 10 µM (UACC-62): -44% | growth at 1 µM (SN12C): 45% | growth at 10 µM (MDA-MB-435 [7]): -62% | growth at 1 µM (NCI/ADR-RES [8]): 45% | TGI (PC-3 [9]; read-out: TGI): 3.54 µM | GI50 (PC-3 [9]; read-out: pGI50 (converted)): 0.813 µM | CC50 (PC-3 [9]; [13]): 33.1 µM | TGI (PC-3 [9]; read-out: pTGI (converted)): 3.55 µM | growth at 1 µM (UACC-257): 88% | TGI (MDA-MB-435 [10]; read-out: TGI): 3.49 µM | GI50 (MDA-MB-435 [10]; read-out: pGI50 (converted)): 1.48 µM | CC50 (MDA-MB-435 [10]; [13]): 8.13 µM | TGI (MDA-MB-435 [10]; read-out: pTGI (converted)): 3.47 µM | growth at 0.1 µM (HT-29 [11]): 95% | growth at 0.1 µM (CCRF-CEM): 101% | TGI (MCF7; read-out: TGI): 5.66 µM | GI50 (MCF7; read-out: pGI50 (converted)): 0.24 µM | CC50 (MCF7; [13]): 85.1 µM | TGI (MCF7; read-out: pTGI (converted)): 5.62 µM | growth at 0.1 µM (RPMI-8226): 98% | growth at 0.1 µM (M14): 99% | growth at 100 µM (HCT-15): -32% | growth at 0.1 µM (SW-620 [12]): 77% | growth at 1 µM (SF-268): 76% | TGI (LOX IMVI; read-out: TGI): 2.05 µM | GI50 (LOX IMVI; read-out: pGI50 (converted)): 0.661 µM | CC50 (LOX IMVI; [13]): 5.13 µM | TGI (LOX IMVI; read-out: pTGI (converted)): 2.04 µM | growth at 100 µM (OVCAR-3): -36% | growth at 1 µM (RXF 393): 88% | growth at 0.01 µM (OVCAR-5): 87% | growth at 0.1 µM (OVCAR-4): 97%

C#C[C@@]1(O)[C@@H](CO)O[C@@H](n2cc(Cl)c3c(N)ncnc32)[C@@H]1O
growth at 0.1 µM (COLO 205 [1]): 43 to 69% | growth at 0.1 µM (SF-539): 90 to 98% | growth at 0.01 µM (NCI-H522): 82 to 88% | GI50 (HT-29 [3]; read-out: GI50): 0.0322 to 0.0591 µM | CC50 (HT-29 [3]): > 100 µM | TGI (HT-29 [3]; read-out: TGI): 0.747 to 100 µM | growth at 0.1 µM (SR): 34 to 46% | growth at 0.01 µM (A498): 103 to 107% | growth at 1 µM (SN12C): 5 to 11% | growth at 10 µM (MDA-MB-435 [7]): -65% | GI50 (PC-3 [9]; read-out: GI50): 0.173 to 0.211 µM | CC50 (PC-3 [9]; [14]): > 100 µM | TGI (PC-3 [9]; read-out: TGI): 3.52 to 4.54 µM | growth at 1 µM (UACC-257): 12 to 29% | GI50 (MDA-MB-435 [10]; read-out: GI50): 0.132 to 0.208 µM | CC50 (MDA-MB-435 [10]; [14]): 4.67 to 100 µM | TGI (MDA-MB-435 [10]; read-out: TGI): 0.52 to 10.2 µM | growth at 0.1 µM (HT-29 [11]): 18 to 38% | growth at 0.1 µM (CCRF-CEM): 76 to 80% | GI50 (MCF7; read-out: GI50): 0.0218 to 0.0319 µM | CC50 (MCF7; [14]): 5.32 to 7.11 µM | TGI (MCF7; read-out: TGI): 1.04 to 1.16 µM | growth at 0.1 µM (RPMI-8226): 64 to 65% | growth at 0.1 µM (M14): 69 to 79% | growth at 100 µM (HCT-15): 1% | growth at 0.1 µM (SW-620 [12]): 34 to 50% | growth at 1 µM (SF-268): 23 to 24% | GI50 (LOX IMVI; read-out: GI50): 0.036 to 0.0814 µM | CC50 (LOX IMVI; [14]): 0.756 to 0.871 µM | TGI (LOX IMVI; read-out: TGI): 0.226 to 0.284 µM | growth at 0.01 µM (OVCAR-5): 95 to 97% | growth at 0.1 µM (OVCAR-4): 89 to 95%
